For this test, the target named is T1, human TLR7 (Homo sapiens, UniProt Q9NYK1).
T1 construct: host or cells: HEK293 (HEK-Blue hTLR7)
T1 sequence (Q9NYK1 27-1049): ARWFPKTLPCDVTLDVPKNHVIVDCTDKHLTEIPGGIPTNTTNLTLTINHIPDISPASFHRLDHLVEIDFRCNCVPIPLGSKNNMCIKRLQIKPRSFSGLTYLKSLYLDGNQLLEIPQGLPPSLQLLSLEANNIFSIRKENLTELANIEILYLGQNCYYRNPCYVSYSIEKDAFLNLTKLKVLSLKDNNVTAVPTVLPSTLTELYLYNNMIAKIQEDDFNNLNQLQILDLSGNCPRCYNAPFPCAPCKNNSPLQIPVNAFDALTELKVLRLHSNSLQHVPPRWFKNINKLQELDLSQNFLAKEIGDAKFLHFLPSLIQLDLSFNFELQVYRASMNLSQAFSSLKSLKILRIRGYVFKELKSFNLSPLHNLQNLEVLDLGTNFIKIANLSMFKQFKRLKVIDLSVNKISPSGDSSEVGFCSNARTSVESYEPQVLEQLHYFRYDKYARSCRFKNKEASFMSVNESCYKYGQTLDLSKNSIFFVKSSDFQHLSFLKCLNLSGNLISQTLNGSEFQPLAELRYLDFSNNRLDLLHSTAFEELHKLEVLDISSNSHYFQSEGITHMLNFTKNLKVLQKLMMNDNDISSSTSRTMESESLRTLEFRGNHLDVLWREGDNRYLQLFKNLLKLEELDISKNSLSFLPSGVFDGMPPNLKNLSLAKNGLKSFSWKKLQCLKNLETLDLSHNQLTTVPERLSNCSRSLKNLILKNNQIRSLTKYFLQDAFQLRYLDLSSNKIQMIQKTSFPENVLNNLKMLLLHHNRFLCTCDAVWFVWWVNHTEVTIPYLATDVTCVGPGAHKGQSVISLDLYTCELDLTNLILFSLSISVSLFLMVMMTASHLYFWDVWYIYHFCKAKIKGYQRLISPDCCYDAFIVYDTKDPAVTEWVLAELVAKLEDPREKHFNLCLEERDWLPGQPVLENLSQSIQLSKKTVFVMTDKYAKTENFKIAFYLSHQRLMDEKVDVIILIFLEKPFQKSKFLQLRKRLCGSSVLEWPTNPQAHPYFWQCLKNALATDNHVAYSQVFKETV
In words: HEK293-Blue-hTLR-7 cells assay. The test is classed as cell-based. Particulars: HEK293-Blue-hTLR7 cells, R848 stimulation, 20 hrs, SEAP reporter; read-out: HEK/hTLR7 IC50. How it is done: The following tests were carried out in order to determine the activity of the compounds of formula (I) and (Ia) in HEK293-Blue-hTLR-7/8/9 cells assay.
HEK293-Blue-hTLR-7 cells assay:
A stable HEK293-Blue-hTLR-7 cell line was purchased from InvivoGen (Cat. #: hkb-htlr7, San Diego, Calif., USA). These cells were originally designed for studying the stimulation of human TLR7 by monitoring the activation of NF-κB. A SEAP (secreted embryonic alkaline phosphatase) reporter gene was placed under the control of the […] minimal promoter fused to five NF-κB and AP-1-binding sites. The SEAP was induced by activating NF-κB and AP-1 via stimulating HEK-Blue hTLR7 cells with TLR7 ligands. Therefore, the reporter expression was declined by TLR7 antagonist under the stimulation of a ligand, such as R848 (Resiquimod), for incubation of 20 hrs. The cell culture supernatant SEAP reporter activity was determined using QUANTI-Blue™ kit (Cat. #: rep-qb1, Invivogen, San Diego, Calif., USA) at a wavelength of 640 nm, a detection medium that turns purple or blue in the presence of alkaline phosphatase.
Then 20 μL of the supernatant from each well was incubated with […] Quanti-blue substrate solution at 37° C. for 2 hrs and the absorbance was read at 620-655 nm using a spectrophotometer. The signaling pathway that TLR7 activation leads to downstream NF-κB activation has been widely accepted, and therefore similar reporter assay was modified for evaluating TLR7 antagonist.
On to `C[C@@H]1CN(c2ccc(C#N)n3ncc(F)c23)C[C@@H]2CN(CCc3ccc(N4C[C@@H](N)[C@@H](F)C4)nc3)CCN21` [Example 75, 4-[(4R,9aS)-8-[2-[6-[(3R,4S)-3-amino-4-fluoro-pyrrolidin-1-yl]-3-pyridyl]ethyl]-4-methyl-3,4,6,7,9,9a-hexahydro-1H-pyrazino[1,2-a]pyrazin-2-yl]-3-fluoro-pyrazolo[1,5-a]pyridine-7-carbonitrile], for which the IC50 worked out at 34 nM.
In the case of `C[C@@H]1CN(c2ccc(C#N)c3ncccc23)C[C@@H]2CN(c3ccnc(N4CCOC[C@@H](N)C4)c3)CCN21` [Example 53, 5-[(4R,9aS)-8-[2-[(6S)-6-amino-1,4-oxazepan-4-yl]-4-pyridyl]-4-methyl-3,4,6,7,9,9a-hexahydro-1H-pyrazino[1,2-a]pyrazin-2-yl]quinoline-8-carbonitrile], the IC50 was 13 nM.
With `C[C@@H]1CN(c2ccc(C#N)c3ncccc23)C[C@@H]2CN(c3ccnc(N4CC(C)(N)C4)c3)CCN21` [Example 56, 5-[(4R,9aS)-8-[2-(3-amino-3-methyl-azetidin-1-yl)-4-pyridyl]-4-methyl-3,4,6,7,9,9a-hexahydro-1H-pyrazino[1,2-a]pyrazin-2-yl]quinoline-8-carbonitrile] the figure was 13 nM; with `C[C@@H]1CN(c2ccc(C#N)c3ncccc23)C[C@@H]2CN(CCc3ccc(N4CC5(CNCCO5)C4)cc3)CCN21` [Example 28, 5-[(4R,9aS)-4-methyl-8-[2-[4-(5-oxa-2,8-diazaspiro[3.5]nonan-2-yl)phenyl]ethyl]-3,4,6,7,9,9a-hexahydro-1H-pyrazino[1,2-a]pyrazin-2-yl]quinoline-8-carbonitrile], 12 nM.
Turning to `C[C@@H]1CN(c2cccc(CCN3CCN4[C@@H](C3)CN(c3ccc(C#N)c5ncccc35)C[C@H]4C)n2)CCN1` [Example 58, 5-[(4R,9aS)-4-methyl-8-[2-[6-[(3R)-3-methylpiperazin-1-yl]-2-pyridyl]ethyl]-3,4,6,7,9,9a-hexahydro-JH-pyrazino[1,2-a]pyrazin-2-yl]quinoline-8-carbonitrile], the IC50 stood at 20 nM.
The figure for `C[C@@H]1CN(c2ccc(C#N)c3ncccc23)C[C@@H]2CN(Cc3cccc4c3CNCC4)CCN21` [Example 71, 5-[(4R,9aS)-4-methyl-8-(1,2,3,4-tetrahydroisoquinolin-8-ylmethyl)-3,4,6,7,9,9a-hexahydro-1H-pyrazino[1,2-a]pyrazin-2-yl]quinoline-8-carbonitrile] is 45 nM; for `C[C@@H]1CN(c2ccc(C#N)c3ncccc23)C[C@@H]2CN(CCc3ccc(N4CCN[C@@H](C)C4)cn3)CCN21` [Example 20, 5-[(4R,9aS)-4-methyl-8-[2-[5-[(3S)-3-methylpiperazin-1-yl]-2-pyridyl]ethyl]-3,4,6,7,9,9a-hexahydro-1H-pyrazino[1,2-a]pyrazin-2-yl]quinoline-8-carbonitrile] it is 14 nM.
The figure for `[2H]c1ccc2c(N3C[C@@H]4CN(Cc5ccc(N6CCNCC6)nc5)CCN4[C@H](C)C3)ccc(C#N)c2n1` [Example 78, 5-[(4R,9aS)-4-methyl-8-[(6-piperazin-1-yl-3-pyridyl)methyl]-3,4,6,7,9,9a-hexahydro-1H-pyrazino[1,2-a]pyrazin-2-yl]-2-deuterio-quinoline-8-carbonitrile] is 35 nM; for `C[C@H]1CN(c2ccc(C#N)c3ncccc23)C[C@@H]2CN(c3ccc([C@@H]4CNCCO4)cc3)CCN21` [Example 125, 5-[(4S,9aS)-4-methyl-8-[4-[(2R)-morpholin-2-yl]phenyl]-3,4,6,7,9,9a-hexahydro-1H-pyrazino[1,2-a]pyrazin-2-yl]quinoline-8-carbonitrile] it is 1 nM; for `Cc1cc(N2CCOC[C@H](N)C2)ncc1N1CCN2CCN(c3ccc(C#N)c4ncccc34)CC2C1` (stereo partly drawn) [Example 46, 5-[2-[6-[(6R)-6-amino-1,4-oxazepan-4-yl]-4-methyl-3-pyridyl]-3,4,6,7,9,9a-hexahydro-1H-pyrazino[1,2-a]pyrazin-8-yl]quinoline-8-carbonitrile] it is 14 nM.
The figure for `CO[C@@H]1CN(c2ccc(CCN3CCN4[C@@H](C3)CN(c3ccc(C#N)c5ncccc35)C[C@H]4C)nc2)C[C@H]1N` [Example 13, 5-[(4R,9aS)-8-[2-[5-[(3R,4R)-3-amino-4-methoxy-pyrrolidin-1-yl]-2-pyridyl]ethyl]-4-methyl-3,4,6,7,9,9a-hexahydro-1H-pyrazino[1,2-a]pyrazin-2-yl]quinoline-8-carbonitrile] is 26 nM.
As to `C[C@@H]1CN(c2ccc(C#N)c3ncccc23)C[C@@H]2CN(Cc3ccc4c(c3)CCNC4)CCN21` [Example 10, 5-[(4R,9aS)-4-methyl-8-(1,2,3,4-tetrahydroisoquinolin-6-ylmethyl)-3,4,6,7,9,9a-hexahydro-1H-pyrazino[1,2-a]pyrazin-2-yl]quinoline-8-carbonitrile], the IC50 stood at 26 nM.
Consider `C[C@@H]1CN(c2ccc(C#N)c3ncccc23)C[C@@H]2CN(CCc3ccc(N4C[C@H]5NCCO[C@@H]5C4)nc3)CCN21` [Example 124, 5-[(4R,9aS)-8-[2-[6-[(4aR,7aR)-3,4,4a,5,7,7a-hexahydro-2H-pyrrolo[3,4-b][1,4]oxazin-6-yl]-3-pyridyl]ethyl]-4-methyl-3,4,6,7,9,9a-hexahydro-1H-pyrazino[1,2-a]pyrazin-2-yl]quinoline-8-carbonitrile], for which the IC50 was 14 nM.
With `C[C@@H]1CN(c2ccc(C#N)c3ncccc23)C[C@@H]2CN(CCc3ccc(N4C[C@@H](N)[C@@H](F)C4)cn3)CCN21` [Example 19, 5-[(4R,9aS)-8-[2-[5-[(3R,4S)-3-amino-4-fluoro-pyrrolidin-1-yl]-2-pyridyl]ethyl]-4-methyl-3,4,6,7,9,9a-hexahydro-1H-pyrazino[1,2-a]pyrazin-2-yl]quinoline-8-carbonitrile], the IC50 turned out to be 10 nM.
With `C[C@@H]1CN(c2ccc(C#N)c3ncccc23)C[C@@H]2CN(c3ccnc(N4CC[C@@](C)(N)C4)c3)CCN21` [Example 105, 5-[(4R,9aS)-8-[2-[(3R)-3-amino-3-methyl-pyrrolidin-1-yl]-4-pyridyl]-4-methyl-3,4,6,7,9,9a-hexahydro-1H-pyrazino[1,2-a]pyrazin-2-yl]quinoline-8-carbonitrile] the figure was 26 nM.
As to `[2H]c1ccc2c(N3C[C@@H]4CN(Cc5ccc6c(c5)CNCC6)CCN4[C@H](C)C3)ccc(C#N)c2n1` [Example 61, 5-[(4R,9aS)-4-methyl-8-(1,2,3,4-tetrahydroisoquinolin-7-ylmethyl)-3,4,6,7,9,9a-hexahydro-1H-pyrazino[1,2-a]pyrazin-2-yl]-2-deuterio-quinoline-8-carbonitrile], the IC50 was 16 nM.
The figure for `[2H]c1ccc2c(N3C[C@@H]4CN(CCc5ccc(N6CC7(CN(C)C7)C6)nc5)CCN4[C@H](C)C3)ccc(C#N)c2n1` [Example 64, 5-[(4R,9aS)-4-methyl-8-[2-[6-(6-methyl-2,6-diazaspiro[3.3]heptan-2-yl)-3-pyridyl]ethyl]-3,4,6,7,9,9a-hexahydro-1H-pyrazino[1,2-a]pyrazin-2-yl]-2-deuterio-quinoline-8-carbonitrile] is 23 nM.
With `C[C@@H]1CN(c2ccc(C#N)c3ncccc23)C[C@@H]2CN(Cc3ccc(N4CCCNCC4)nc3)CCN21` [Example 15, 5-[(4R,9aS)-8-[[6-(1,4-diazepan-1-yl)-3-pyridyl]methyl]-4-methyl-3,4,6,7,9,9a-hexahydro-JH-pyrazino[1,2-a]pyrazin-2-yl]quinoline-8-carbonitrile] the figure was 49 nM.

The values are drawn from patent US20220340597A1, “HEXAHYDRO-1H-PYRAZINO[1,2-A]PYRAZINE COMPOUNDS FOR THE TREATMENT OF AUTOIMMUNE DISEASE” (Hoffmann-La Roche Inc., priority 2019, published 2022).
